The test system of one data set is OV90. The data set is described as follows: Cytotoxicity (MTT/DIMSCAN), OV90 cells. The conditions noted are these: Homo sapiens, OV-90; OV90, wild-type BRCA1 ovarian cancer cells; COH29 72 h; read-out: IC50, mean ± SEM. Format: cell-based, human. On the procedure: All cell lines were acquired from the American Type Culture Collection (Manassas, Va., USA). Cells were maintained in RPMI 1640 medium (Mediatech) with 10% fetal bovine serum, 2 mM glutamine, and 100 U of penicillin and 100 μg of streptomycin per ml of medium (Sigma) at 37° C. in 5% CO2. To isolate HCC1437+BRCA1 cells, parental HCC1937 cells were transfected with pcDNA3.1 plasmid expressing full-length BRCA1 cDNA. Stable transfectant clones were selected and used for drug sensitivity assays. For stable transfection, cells at 30-40% confluence were incubated overnight with […] of plasmid DNA, using FUGENE® 6 transfectin reagent (Roche Molecular Biochemical, Monza, Italy) according to the manufacturer's instructions. Cells were then selected in puromycin (1 μg/ml) (Invitrogen life Technologies, La Jolla, Calif., USA.) After 20 to 30 days, viable puromycin-resistant colonies from HCC1937 transfections were expanded and screened. The clones that stably expressed […] and retained growth potential were assayed for BRCA1 expression by Western blot analysis. By Western blot analysis, we evaluated the restoration of BRCA1 expression in the puromycin-resistant cDNA/transfectant cells.
The MTT cytotoxicity assay was performed by incubating with MTT and monitoring the MTT formazan formed by viable cells with a microplate reader at a wavelength of 560 nm; the survival, ratio was determined using the formula: (Atest−Ablank)/(Acontrol−Ablank)×100%. The cytotoxicity was determined in 96-well plates using the semiautomatic fluorescence-based Digital Imaging Microscopy System (DIMSCAN). DIMSCAN uses digital imaging microscopy to quantify viable cells, which selectively accumulate FDA (fluorescein diacetate; Alfa Aesar, Ward Hill, Mass.). DIMSCAN is capable of measuring cytotoxicity over a 4 log dynamic range by quantifying total fluorescence per well (which is proportional to the number of viable cells) after elimination of the background fluorescence by digital thresholding and eosin Y (Mallinckrodt Baker, Center Valley, Pa.) quenching. Cells were seeded into 96-well plates in 100 μL of complete medium at 2,000 to 5,000 cells per well depending on cell line growth rate. After overnight incubation, test compound was added to each well at various concentrations in 50 μL of culture medium. […] Total fluorescence per well was then measured using DIMSCAN, and the results were expressed as the ratio of the fluorescence in treated wells to the fluorescence in untreated wells (survival fraction).

The test system of data set [1] is DNA damage checkpoint proteins (ATM, CHK1, CHK2, γ-H2AX). The data set is described as follows: DNA damage checkpoint proteins by Western blot. Type of data set: cell-based, human. As to the method: For subcellular fractionation, cells were trypsinized and washed with cold PBS solution twice. After centrifugation at 1,200 g for 5 min, cells were incubated in buffer (50 mM HEPES, pH 7.5, 150 mM NaCl, 1 mM EDTA) containing 0.2% NONIDET™ P-40 (NP-40), supplemented with protease inhibitors (5 μg/ml each of pepstatin, leupeptin, and aprotinin) and phosphatase inhibitors on ice for 5 min. Following centrifugation at 1,000 g for 5 min, the supernatant was collected (i.e., cytoplasmic fraction) and pellets were washed with the same buffer twice. The washed samples were extracted for 40 min on ice with fractionation buffer containing 0.5% NP-40 for nuclear fraction. All the samples were sonicated and clarified by centrifugation at 16,000 g for 15 min. Protein concentrations of all fractions were determined with Bio-Rad Protein Assay (Bio-Rad Laboratories, Hercules, Calif.). Immunoblotting was performed as described previously (21,22). Briefly, equal amounts of boiled protein samples were subjected to SDS-polyacrylamide gel electrophoresis (PAGE) and transferred onto nitrocellulose membranes (Bio-Rad Laboratories). Membranes were blocked for 1 hour in 3% BSA in Tris buffered saline containing 0.05% Tween 20 (TBST) and incubated for 1 hour with primary antibody (1:500 or 1:1000) diluted in TBST containing 1% BSA. After two washes with TBST, membranes were incubated for 1 hour with horseradish peroxidase-conjugated secondary Abs (1:3000 dilution) at room temperature. The immunoblots were visualized on film with the West-Q chemi-luminescence kit (GenDEPOT, Barker, Tex.).
On the technique in general: A western blot detects proteins with antibodies after separation by electrophoresis.

A further data set deals with zebrafish embryos. The data set is described as follows: Zebrafish genotoxicity assay. Format: in vivo, Danio rerio. The following applies: wild-type zebrafish embryos, COH29 0-100 μM. On the procedure:
Zebrafish (Danio rerio) were obtained from zebrafish Core facility of Taipei Medical University and maintained at 28° C. on a 14 h light/10 h dark cycle. Embryos were incubated at 28° C. and different developmental stages were determined as described (25). Wild-type embryos were treated with different concentrations of HU (0, 5, […], 20, 50 mM) or COH29 (0, 10, 20, 50, 100 μM) at 20 hpf to evaluate the mutagenic effect. Fifteen embryos were treated per well condition. […] Embryos were observed using an Olympus IX70-FLA inverted fluorescence microscope. Images were taken using SPOT digital camera system (Diagnostic Instruments, Sterling Heights, Mich., USA) and assembled with ImageJ software (26).

The test system of a further data set is HCC1937+BRCA1 tumors. The experiment in a line: Orthotopic tumor explant model, HCC1937+BRCA1. The conditions noted are these: HCC1937+BRCA1 tumors in NSG mice, daily oral 400 mg/kg; p=0.1577. Format: in vivo. As to the method:
Experiments in mice were conducted under a protocol approved by the IACUC of City of Hope. Because HCC1937 and HCC1937+BRCA1 cells from slow-growing tumors, they were implanted using MATRIGEL™ (Becton-Dickinson Biosciences). To establish tumors 4×10^6 cells in 200 μL serum-free medium containing 50% MATRIGEL™ were injected into the mammary fat pads around the inguinal area of a pair of 8 week old female NSG mice. Once the initial tenors reached 13 mm in diameter, they were dissected out minced into 3 mm pieces and implanted into the inguinal area of the mammary fat pads of the experimental mice Tumors were measured over a 28-day period, and for each time point, the student t-test was used to determine the statistical significance between daily gavage with 400 mg/kg COH29 in 30% solutol and corresponding vehicle control. The p value less than 0.05 (2 sides) was considered to indicate statistical significance

For data set [2] the following is noted: more potent than HU, ref (6); cited from earlier work.

The source of these data is patent US10201530B2, “Treatment of BRCA1-defective cancer or resistant cancers” (City of Hope, priority 2014, dated 2019).

Broadly, the IC50 is the concentration that gives 50% inhibition. On to `O=C(Nc1nc(-c2ccc(O)c(O)c2)c(-c2ccccc2)s1)c1ccc(O)c(O)c1` [COH29], for which the IC50 with OV90 was 31.6 ± 3.35 µM. In data set [1] (MCF7 and MCF-7 p53−/− cells), the γ-H2AX level result is given as “increase in the γ-H2AX level”. Further, the “DNA damage checkpoint activation (phosphorylation of ATM, CHK1, CHK2)” value in data set [1] (MCF7 cells, wild-type p53) is on record as “activated the DNA damage checkpoint”. For the same compound, the “DNA damage checkpoint proteins (ATM, CHK1, CHK2) modification” value in data set [1] (MCF-7 p53−/− cells) was “similarly modified”. For the same compound, in the data set on zebrafish embryos, the viability entry is listed as “no developmental defects (FIG. 5C) or decrease in viability”. Further, the developmental defects result in the data set on zebrafish embryos (HU 0-50 mM) is reported as “no developmental defects”. In addition, the “tumor size compared to vehicle controls” value in the data set on HCC1937+BRCA1 tumors is “not significantly smaller”. Further, the “potency relative to HU” value in data set [2] was 20 fold.
